Experimental data published in patent publication US9096539B2, “Substituted 4,5-dihydro-2H-benzo[e]indazole-9-carboxylates for the treatment of diabetes and related disorders” (Council of Scientific & Industrial Research, priority 2012, dated 2015).
Like-named read-outs stand apart in the source and are kept apart here.

Assays:
[1] = target: T1, human recombinant PTP1B enzyme (Homo sapiens, UniProt P18031); test: Protein tyrosine phosphatase-1B assay (colorimetric kit BML-AK 822); format: biochemical; conditions: read-out: % Inhibition (PTP-1B)
T1 construct: purchased Enzo Life Sciences, USA BML-AK 822
T1 sequence (P18031 1-322 limits assumed): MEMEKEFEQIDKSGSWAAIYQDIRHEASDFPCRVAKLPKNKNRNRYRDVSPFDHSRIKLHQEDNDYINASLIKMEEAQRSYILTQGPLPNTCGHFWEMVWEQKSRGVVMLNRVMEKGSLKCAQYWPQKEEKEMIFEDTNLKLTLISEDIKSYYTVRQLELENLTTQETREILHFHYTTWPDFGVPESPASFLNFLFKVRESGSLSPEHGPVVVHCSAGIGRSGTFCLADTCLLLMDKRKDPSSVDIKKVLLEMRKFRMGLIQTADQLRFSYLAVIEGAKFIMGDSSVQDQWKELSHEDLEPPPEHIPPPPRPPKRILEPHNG
Procedure: Assay was done according to the Kit manufacturers protocol, in brief the reaction was carried out in 96 well flat bottomed microtiter plate by the addition of assay buffer, solution of test compounds and diluted PTP1B enzyme. Enzyme reaction was initiated by addition of 50 μl of warmed 2× substrate then incubated the plate at 30° C. for 30 min. After incubation for 30 min. Reaction was terminated by addition of 25 μl of biomol red reagent and mixed thoroughly by repeated pipetting. […] Volumes and dilution of other component were accordingly as instructed in the manual provided in the kit. PTP1B phosphatase acting on the phosphopeptide substrate and release phosphate. The detection of free phosphate released is based on classic Malachite green assay. After adding biomol red to reaction wells after 30 minutes of incubation as described earlier the plate was incubated for another 20 min to develop the colour. Absorbance was recorded at 620 nm. on a microplate reader.

[2] = tested on: sucrose loaded normoglycaemic rats; test: Antihyperglycaemic activity on sucrose loaded normoglycaemic rats (SLM); format: in vivo, rat; conditions: sucrose loaded normoglycaemic rats, compounds 100 mg/kg, Januvia 50 mg/kg; for Blood Glucose Profile 0 min: 0 min (fasting baseline); for Blood Glucose Profile 120 min: 120 min post sucrose
Procedure: (§1) The test compounds and standard antidiabetic drug Januvia were prepared in 1.0% freshly prepared Gum acacia.
Assessment of Test Compounds for Antihyperglycaemic Activity on Sucrose Loaded Normoglycaemic Rats—
In order to search towards the antidiabetic activity, synthetic compounds were preliminary evaluated for their effect on glucose tolerance in normal rats. It is an indirect effect of measuring antihyperglycaemic activity. Male albino rats of Wistar strain of body weight 160±20 g were selected for this study. The blood glucose of each animal was checked by glucometer using glucostrips (Accu-check) after 16 hours starvation. Animals showing blood glucose between 60 to 80 mg/dl (3.33 to 4.44 mM) were divided into groups of five to six animals in each. Rats of experimental group were administered suspension of the desired test compound orally (made in 1.0% gum acacia). The standard dose decided for Synthetic compounds is 100 mg/kg body weight. Animals of control group were given an equal amount of 1.0% gum acacia. A sucrose load (10.0 g/kg) was given to each animal orally exactly after 30 min post administration of the test sample/vehicle. Blood glucose profile of each rat was again determined at 30, 60, 90 and 120 min post administration of sucrose by glucometer. Food but not water was withheld from the cages during the course of experimentation. Quantitative glucose tolerance of each animal was calculated by area under curve (AUC) method using Prism Software. Comparing the AUC of experimental and control groups determined the percentage antihyperglycaemic activity. Statistical comparison was made by Dunnett's test.
(§2) Quantitative glucose tolerance of each animal was calculated by the area under the curve (AUC) method using Prism Software. The area under the curve of the control group and the experimental group was compared to determine the percent antihyperglycaemic activity. Statistical comparisons were performed by one-way analysis of variance (ANOVA), followed by Dunnett's multiple range test (DMRT). The results were considered statistically significant if the ‘p’ values were 0.05 or less. Results were expressed as mean±SEM.

[3] = tested on: sucrose challenged STZ induced diabetic rats; test: Antihyperglycaemic activity in sucrose challenged streptozotocin (STZ)-induced diabetic rats (STZ-S); format: in vivo, rat; conditions: compounds 100 mg/kg, Januvia 50 mg/kg
Procedure: The test compounds and standard antidiabetic drug Januvia were prepared in 1.0% freshly prepared Gum acacia. Assessment of Test Compounds for Antihyperglycaemic Activity in Sucrose Challenged Streptozotocin STZ-Induced Diabetic Rats— Induction of Diabetes in Rats: Overnight starved male albino rats of Sprague Dawley strain were used and Diabetes was induced in the animals by single intraperitoneal injection of Streptozotocin at 60 mg/kg body weight dose prepared in 0.1M citrate buffer (pH 4.5). Fasting blood glucose level was measured by using a Glucometer (ACCU-CHEK II; […] Grouping and Treatment: […] All the diabetic animals were again divided into groups with five animals in each group. Animals of one group were regarded as the control group (orally administered 1% gum acacia) and the others were treated as the experimental groups. […] Animals of the control group were given an equal amount of 1.0% gum acacia. The standard antidiabetic drug Januvia was given to the animals at an oral dose of 50 mg/kg body weight. […] Food but not water was withheld from the cages during the course of experimentation. Percent hyperglycemic activity was determined by comparing the AUC (area under curve) of experimental groups with that of the vehicle treated control group. Quantitative glucose tolerance of each animal was calculated by the area under the curve (AUC) method using Prism Software. The area under the curve of the control group and the experimental group was compared to determine the percent antihyperglycaemic activity. Statistical comparisons were performed by one-way analysis of variance (ANOVA), followed by Dunnett's multiple range test (DMRT). […] Results were expressed as mean±SEM.

[4] = tested on: low dosed STZ induced diabetic rats; test: Antihyperglycaemic activity in low dosed streptozotocin induced diabetic rats (STZ); format: in vivo, rat; conditions: low dosed STZ diabetic rats, compounds 100 mg/kg, Januvia 50 mg/kg
Procedure: as §1
Assessment of Test Compounds for Antihyperglycaemic Activity in Low Dosed Streptozotocin Induced Diabetic Rats—
Induction of Diabetes in Rats:
Overnight starved male albino rats of Sprague Dawley strain were used and Diabetes was induced in the animals by single intraperitoneal injection of Streptozotocin at 60 mg/kg body weight dose prepared in 0.1M citrate buffer (pH 4.5). Fasting blood glucose level was measured by using a Glucometer (ACCU-CHEK II; Roche Diagnostics, USA) after 48 hours and animals showing blood glucose level above 300 mg/di were considered as diabetic.
The diabetic animals were divided into four groups (Group 1 to 4) each consisting 6 rats. Group 1 received 0.4 ml vehicle (1% gum acacia). Group 2 received the test compound 5 at an oral dose of 100 mg/kg/body weight. Group 3 was given compound 6 at an oral dose of 100 mg/kg/body weight. The standard antidiabetic drug Januvia was given to the animals of Group 4 at an oral dose of 50 mg/kg body weight. […] Food but not water was withheld from the cages during the course of experimentation. Percent hyperglycemic activity was determined by comparing the AUC (area under curve) of experimental groups with that of the vehicle treated control group.
as §2

[5] = Table 5, evaluated at 10 μM concentration
[6] = 0 min pre treatment (fasting baseline)

In the case of COC(=O)c1c(SC)cc(-c2ccc3ccc4cccc5ccc2c3c45)c2c1-c1cn(-c3ccccc3)nc1CC2 [compound 9, methyl 8-(methylthio)-2-phenyl-6-(pyren-1-yl)-4,5-dihydro-2H-benzo[e]indazole-9-carboxylate], the inhibition at 10 µM [1] is reported as 10.7% and the melting point is reported as 174 to 176 °C.

Compound COC(=O)c1c(S(C)(=O)=O)cc(-c2ccc(C)cc2)c2c1-c1cn(-c3ccccc3)nc1CC2 [compound 12, methyl 8-(methylsulfonyl)-2-phenyl-6-(p-tolyl)-4,5-dihydro-2H-benzo[e]indazole-9-carboxylate] has an inhibition at 10 µM [1, 5] of 26.4% and a melting point of 228 to 230 °C.

With COC(=O)c1c(S(C)(=O)=O)cc(-c2cccc3ccccc23)c2c1-c1cn(-c3ccccc3)nc1CC2 [compound 11, methyl 8-(methylsulfonyl)-6-(naphthalen-1-yl)-2-phenyl-4,5-dihydro-2H-benzo[e]indazole-9-carboxylate] the inhibition at 10 µM [1, 5] was 18.8% and the melting point was 204 to 206 °C.

COC(=O)c1c(SC)cc(-c2cccs2)c2c1-c1cn(-c3ccccc3)nc1CC2 [compound 7, methyl 8-(methylthio)-2-phenyl-6-(thiophen-2-yl)-4,5-dihydro-2H-benzo[e]indazole-9-carboxylate] gave an inhibition at 10 µM [1, 5] of 12.7% and a melting point of 174 to 176 °C.

Work on COC(=O)c1c(SC)cc(-c2ccccc2)c2c1-c1cn(-c3ccccc3)nc1CC2 [compound 4, methyl 8-(methylthio)-2,6-diphenyl-4,5-dihydro-2H-benzo[e]indazole-9-carboxylate] yielded an inhibition at 10 µM [1, 5] of 16.4% and a melting point of 173 to 175 °C.

COC(=O)c1c(SC)cc(-c2ccc3ccccc3c2)c2c1-c1cn(-c3ccccc3)nc1C2 [compound 13, Methyl 5-(methylthio)-7-(naphthalen-2-yl)-2-phenyl-2,8-dihydroindeno[2,1-c]pyrazole-4-carboxylate] showed a melting point of 235 to 237 °C.

With N[C@@H](CC(=O)N1CCn2c(nnc2C(F)(F)F)C1)Cc1cc(F)c(F)cc1F [Januvia, reference compound] the “Blood Glucose Profile 0 min” value ([2]; mean ± S.E.) was 66.3 ± 3.12 mg/dL, the “Blood Glucose Profile 0 min” value ([2]; mean ± S.E., listed as januvia) was 66.2 ± 0.73 mg/dL and the “Blood Glucose Profile 30 min” value ([2]; 30 min post sucrose, mean ± S.E.) was 114.0 ± 8.21 mg/dL. The “Blood Glucose Profile 60 min” value ([2]; 60 min post sucrose, mean ± S.E.) was 104.8 ± 5.70 mg/dL, the “Blood Glucose Profile 90 min” value ([2]; 90 min post sucrose, mean ± S.E.) was 112.0 ± 7.30 mg/dL and the “Blood Glucose Profile 120 min” value ([2]; mean ± S.E.) was 115.0 ± 7.67 mg/dL. For the same compound, the “Blood Glucose Profile 120 min” value ([2]; mean ± S.E., listed as januvia) was 115.0 ± 7.67 mg/dL, the “% Antihyperglycaemic activity SLM” value ([2]; AUC vs control, oral) was 35.0% and the “% Antihyperglycaemic activity STZ-S 0-5 h AUC” value ([3]; 0-5 h AUC, oral) was 21.8%. For the same compound, the “% Antihyperglycaemic activity STZ-S 0-24 h AUC” value ([3]; 0-24 h AUC, oral) was 23.8%, the “Blood Glucose Profile 0 min (Pre treatment)” value [3, 6] was 222.3 ± 16.2 mg/dL and the “Blood Glucose Profile 30 min (Post treatment)” value ([3]; 30 min) was 455.0 ± 14.2 mg/dL. The “Blood Glucose Profile 60 min (Post treatment)” value ([3]; 60 min) was 519.8 ± 16.0 mg/dL, the “Blood Glucose Profile 90 min (Post treatment)” value ([3]; 90 min) was 469.3 ± 9.40 mg/dL and the “Blood Glucose Profile 120 min (Post treatment)” value ([3]; 120 min) was 439.3 ± 14.2 mg/dL. The “Blood Glucose Profile 180 min (Post treatment)” value ([3]; 180 min) was 377.6 ± 10.1 mg/dL, the “Blood Glucose Profile 240 min (Post treatment)” value ([3]; 240 min) was 359.5 ± 10.1 mg/dL and the “Blood Glucose Profile 300 min (Post treatment)” value ([3]; 300 min) was 337.6 ± 8.18 mg/dL. The “Blood Glucose Profile 1440 min (Post treatment)” value ([3]; 1440 min) was 394.6 ± 8.34 mg/dL, the “Blood Glucose Profile 0 min (Pre treatment)” value [4, 6] was 341.4 ± 3.53 mg/dL and the “Blood Glucose Profile 30 min (Post treatment)” value ([4]; 30 min) was 445.8 ± 13.0 mg/dL. The “Blood Glucose Profile 60 min (Post treatment)” value ([4]; 60 min) was 497.4 ± 11.2 mg/dL, the “Blood Glucose Profile 90 min (Post treatment)” value ([4]; 90 min) was 473.4 ± 11.2 mg/dL and the “Blood Glucose Profile 120 min (Post treatment)” value ([4]; 120 min) was 392.0 ± 11.8 mg/dL. The “Blood Glucose Profile 180 min (Post treatment)” value ([4]; 180 min) was 348.2 ± 16.7 mg/dL, the “Blood Glucose Profile 240 min (Post treatment)” value ([4]; 240 min) was 300.4 ± 14.7 mg/dL and the “Blood Glucose Profile 300 min (Post treatment)” value ([4]; 300 min) was 255.0 ± 16.9 mg/dL. For the same compound, the “Blood Glucose Profile 1440 min (Post treatment)” value ([4]; 1440 min) was 484.4 ± 10.7 mg/dL, the “% Antihyperglycaemic activity STZ 0-5 h AUC” value ([4]; 0-5 h AUC, oral) was 28.2% and the “% Antihyperglycaemic activity STZ 0-24 h AUC” value ([4]; 0-24 h AUC, oral) was 27.4%.

Cc1ccc(C(=O)Nc2ccc(S(=O)(=O)O)c3cc(S(=O)(=O)O)cc(S(=O)(=O)O)c23)cc1NC(=O)c1cccc(NC(=O)Nc2cccc(C(=O)Nc3cc(C(=O)Nc4ccc(S(=O)(=O)O)c5cc(S(=O)(=O)O)cc(S(=O)(=O)O)c45)ccc3C)c2)c1 [Standard Suramin, suramin, reference compound] gave an inhibition at 10 µM [1, 5] of 60.2%.
